Assays:
[1] = system: SFRP2 and VEGF-stimulated in vitro tube formation; settings: cited from earlier work
[2] = system: endothelial and breast cancer cells; settings: cited from earlier work
breast tumor xenograft = settings: in vivo; cited from earlier work
FKBP1A = target: T1, FKBP1A (Homo sapiens, UniProt P62942); assay: Anti-tumor effect on tumor stem cell and EMT markers by PROTAC-mediated FKBP1A expression reduction; type: cell-based
T1 construct: The cells were then washed with PBS, lysed and the expression of FKBP1A was analyzed by western blotting; endogenous in cells; host or cells: MDA-MB-231
T1 sequence (P62942 whole entry): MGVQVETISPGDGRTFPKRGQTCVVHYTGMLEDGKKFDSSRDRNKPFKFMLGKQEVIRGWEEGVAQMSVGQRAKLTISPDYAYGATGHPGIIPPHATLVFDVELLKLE

[3] = system: triple-negative mammary carcinoma; assay: Combined inhibition of FKBP1A and PIN1 in triple-negative mammary carcinoma (tumor stem cell character, apoptosis induction); type: cell-based; settings: FKBP1A-specific siRNA and co-incubation with ATRA

Q: For `C=CC[C@@H]1/C=C(\C)C[C@H](C)C[C@H](OC)[C@H]2O[C@@](O)(C(=O)C(=O)N3CCCC[C@H]3C(=O)O[C@H](/C(C)=C/[C@@H]3CC[C@@H](O)[C@H](OC)C3)[C@H](C)[C@@H](O)CC1=O)[C@H](C)C[C@@H]2OC` [tacrolimus], which “SFRP2 and VEGF-stimulated in vitro tube formation” value [1] is on record?
A: inhibit SFRP2 and VEGF-stimulated in vitro tube formation

Q: And the “Migration of endothelial and breast cancer cells” value [2]?
A: inhibit the migration of endothelial and breast cancer cells

Q: And the “Breast tumor xenograft growth” value (breast tumor xenograft)?
A: attenuates breast tumor xenograft growth in vivo

Q: Which “Anti-tumor effect on tumor stem cell and EMT markers compared to pure inhibition of the enzyme function of FKBP1A” value (FKBP1A) does the source give for `CO[C@H]1C[C@@H]2CC[C@@H](C)[C@@](O)(O2)C(=O)C(=O)N2CCCC[C@H]2C(=O)O[C@H]([C@H](C)C[C@@H]2CC[C@@H](OCCOCc3cn(CCOCCOCCNc4cccc5c4C(=O)N(C4CCC(=O)NC4=O)C5=O)nn3)[C@H](OC)C2)CC(=O)[C@H](C)/C=C(\C)[C@@H](O)[C@@H](OC)C(=O)[C@H](C)C[C@H](C)/C=C/C=C/C=C/1C` (some centres unmarked) [FKBP12 PROTAC RC32] here?
A: stronger anti-tumor effect

Q: Which “Effect on reduction of tumor stem cell character and ability to induce apoptosis” value [3] does the source give for `CC1=C(/C=C/C(C)=C/C=C/C(C)=C/C(=O)O)C(C)(C)CCC1` [ATRA, all-trans retinoic acid] here?
A: strong synergistic effect

Source: US20230133761A1, “INHIBITION OF FKBP1A FOR THE TREATMENT OF TRIPLE-NEGATIVE MAMMARY CARCINOMA” (Heinrich-Heine-Universität Düsseldorf, priority 2020, published 2023)
